Experimental data from patent US11198713B2, “Agents modulating beta-catenin functions and methods thereof” (FOG PHARMACEUTICALS, INC., priority 2017, dated 2021).

Biological target: T1, full-length beta-catenin (Axin site) (Homo sapiens, UniProt P35222)
T1 construct: 15 nM full-length beta-catenin, 20 nM FITC labeled peptide in buffer
T1 sequence (P35222 1-781): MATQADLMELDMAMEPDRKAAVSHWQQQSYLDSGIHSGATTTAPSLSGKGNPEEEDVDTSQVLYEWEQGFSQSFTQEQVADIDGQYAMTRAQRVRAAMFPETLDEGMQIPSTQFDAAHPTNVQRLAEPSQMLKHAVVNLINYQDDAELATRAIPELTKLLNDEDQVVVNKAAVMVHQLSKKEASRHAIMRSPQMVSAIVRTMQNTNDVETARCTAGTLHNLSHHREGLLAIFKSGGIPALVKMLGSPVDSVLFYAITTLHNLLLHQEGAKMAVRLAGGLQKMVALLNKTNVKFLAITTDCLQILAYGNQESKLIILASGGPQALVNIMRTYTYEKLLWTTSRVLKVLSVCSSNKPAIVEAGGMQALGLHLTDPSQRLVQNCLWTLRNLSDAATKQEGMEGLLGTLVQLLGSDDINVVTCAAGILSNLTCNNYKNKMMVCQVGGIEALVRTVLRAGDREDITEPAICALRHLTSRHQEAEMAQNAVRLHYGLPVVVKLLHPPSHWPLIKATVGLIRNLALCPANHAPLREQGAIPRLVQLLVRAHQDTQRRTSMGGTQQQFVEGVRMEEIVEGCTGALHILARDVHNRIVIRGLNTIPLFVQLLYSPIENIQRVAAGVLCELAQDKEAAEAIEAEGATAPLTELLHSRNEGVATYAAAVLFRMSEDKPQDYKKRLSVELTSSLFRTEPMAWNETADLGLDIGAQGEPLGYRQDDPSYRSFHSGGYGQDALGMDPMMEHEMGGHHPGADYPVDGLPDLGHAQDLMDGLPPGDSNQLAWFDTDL
Test: Competition fluorescence polarization assay (Axin site probe)
Format: binding
Settings: competition fluorescence polarization, Table 2; read-out: in vitro FP EC50
In short: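 Competition FP: 15 nM full-length β-catenin pre-incubated 5 min with 20 nM FITC-labelled stapled Axin-site peptide, then titrated peptide added (3-fold series from 5 μM) for 15 min in the dark. Buffer 50 mM Tris pH 8.0, 250 mM NaCl, 2% glycerol, 0.5 mM EDTA; duplicate reads.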

| Structure (SMILES) | EC50 [nM] |
| --- | --- |
| CC[C@H](C)[C@@H]1NC(=O)[C@](C)(NC(=O)[C@H](CCC(N)=O)NC(=O)[C@@H]2CCCN2C(C)=O)CCCC=CCN2CC[C@@](C(=O)N[C@@H](Cc3c[nH]cn3)C(=O)N[C@H](C(=O)N[C@@H](CCCNC(=N)N)C(=O)N[C@@H](CCCNC(=N)N)C(=O)N[C@H](C(=O)N[C@@H](Cc3c[nH]c4ccccc34)C(=O)N[C@@H](CCCNC(=N)N)C(N)=O)C(C)C)C(C)C)(C2)NC(=O)[C@H](CC(=O)O)NC(=O)[C@H](CC(C)C)NC1=O (single isomer, unassigned) [FP0758a, Ac-P-Q-R5-I-L-D-MB-H-V-R-R-V-W-R-NH2] | > 5000 |
| CC[C@H](C)[C@@H]1NC(=O)[C@](C)(NC(=O)[C@H](CCC(N)=O)NC(=O)[C@@H]2CCCN2C(C)=O)CCCCCC=CCN2CC[C@](C(=O)N[C@@H](Cc3c[nH]cn3)C(=O)N[C@H](C(=O)N[C@@H](CCCNC(=N)N)C(=O)N[C@@H](CCCNC(=N)N)C(=O)N[C@H](C(=O)N[C@@H](Cc3c[nH]c4ccccc34)C(=O)N[C@@H](CCCNC(=N)N)C(N)=O)C(C)C)C(C)C)(C2)NC(=O)[C@H](CC(=O)O)NC(=O)[C@H](CC(C)C)NC1=O (single isomer, unassigned) [FP0768a, Ac-P-Q-R7-I-L-D-MC-H-V-R-R-V-W-R-NH2] | > 5000 |
| CC[C@H](C)[C@@H]1NC(=O)[C@](C)(NC(=O)[C@H](CCC(N)=O)NC(=O)[C@@H]2CCCN2C(C)=O)CCCC=CCN(C)CC[C@](C)(C(=O)N[C@@H](Cc2c[nH]cn2)C(=O)N[C@H](C(=O)N[C@@H](CCCNC(=N)N)C(=O)N[C@@H](CCCNC(=N)N)C(=O)N[C@H](C(=O)N[C@@H](Cc2c[nH]c3ccccc23)C(=O)N[C@@H](CCCNC(=N)N)C(N)=O)C(C)C)C(C)C)NC(=O)[C@H](CC(=O)O)NC(=O)[C@H](CC(C)C)NC1=O (single isomer, unassigned) [FP0776a, Ac-P-Q-R5-I-L-D-MG-H-V-R-R-V-W-R-NH2] | 500 to 5000 |
| CC[C@H](C)[C@@H]1NC(=O)[C@](C)(NC(=O)[C@H](CCC(N)=O)NC(=O)[C@@H]2CCCN2C(C)=O)CCCC=CCOC(=O)N(C)CC[C@](C)(C(=O)N[C@@H](Cc2c[nH]cn2)C(=O)N[C@H](C(=O)N[C@@H](CCCNC(=N)N)C(=O)N[C@@H](CCCNC(=N)N)C(=O)N[C@H](C(=O)N[C@@H](Cc2c[nH]c3ccccc23)C(=O)N[C@@H](CCCNC(=N)N)C(N)=O)C(C)C)C(C)C)NC(=O)[C@H](CC(=O)O)NC(=O)[C@H](CC(C)C)NC1=O (single isomer, unassigned) [FP0776c, Ac-P-Q-R5-I-L-D-MG-H-V-R-R-V-W-R-NH2] | 500 to 5000 |
| CC[C@H](C)[C@@H]1NC(=O)[C@](C)(NC(=O)[C@H](CCC(N)=O)NC(=O)[C@@H]2CCCN2C(C)=O)CCCC=CCN(C)CCC[C@](C)(C(=O)N[C@@H](Cc2c[nH]cn2)C(=O)N[C@H](C(=O)N[C@@H](CCCNC(=N)N)C(=O)N[C@@H](CCCNC(=N)N)C(=O)N[C@H](C(=O)N[C@@H](Cc2c[nH]c3ccccc23)C(=O)N[C@@H](CCCNC(=N)N)C(N)=O)C(C)C)C(C)C)NC(=O)[C@H](CC(=O)O)NC(=O)[C@H](CC(C)C)NC1=O (single isomer, unassigned) [FP0777a, Ac-P-Q-R5-I-L-D-MI-H-V-R-R-V-W-R-NH2] | 500 to 5000 |
| CC[C@H](C)[C@@H]1NC(=O)[C@](C)(NC(=O)[C@H](CCC(N)=O)NC(=O)[C@@H]2CCCN2C(C)=O)CCCC=CCOC(=O)N(C)CCC[C@](C)(C(=O)N[C@@H](Cc2c[nH]cn2)C(=O)N[C@H](C(=O)N[C@@H](CCCNC(=N)N)C(=O)N[C@@H](CCCNC(=N)N)C(=O)N[C@H](C(=O)N[C@@H](Cc2c[nH]c3ccccc23)C(=O)N[C@@H](CCCNC(=N)N)C(N)=O)C(C)C)C(C)C)NC(=O)[C@H](CC(=O)O)NC(=O)[C@H](CC(C)C)NC1=O (single isomer, unassigned) [FP0777c, Ac-P-Q-R5-I-L-D-MI-H-V-R-R-V-W-R-NH2] | 500 to 5000 |
| CC[C@H](C)[C@@H]1NC(=O)[C@@](C)(NC(=O)[C@H](CCC(N)=O)NC(=O)[C@@H]2CCCN2C(C)=O)CN(C)C(=O)OCC=CCCC[C@@](C)(C(=O)N[C@@H](Cc2c[nH]cn2)C(=O)N[C@H](C(=O)N[C@@H](CCCNC(=N)N)C(=O)N[C@@H](CCCNC(=N)N)C(=O)N[C@H](C(=O)N[C@@H](Cc2c[nH]c3ccccc23)C(=O)N[C@@H](CCCNC(=N)N)C(N)=O)C(C)C)C(C)C)NC(=O)[C@H](CC(=O)O)NC(=O)[C@H](CC(C)C)NC1=O (single isomer, unassigned) [FP0778c, Ac-P-Q-MD-I-L-D-S5-H-V-R-R-V-W-R-NH2] | 500 to 5000 |

Second part, the molecule after the results:

| EC50 [nM] | Structure (SMILES) |
| --- | --- |
| 500 to 5000 | CC[C@H](C)[C@@H]1NC(=O)[C@](C)(NC(=O)[C@H](CCC(N)=O)NC(=O)[C@@H]2CCCN2C(C)=O)CCCC=CCOC(=O)N2CC[C@@](C(=O)N[C@@H](Cc3c[nH]cn3)C(=O)N[C@H](C(=O)N[C@@H](CCCNC(=N)N)C(=O)N[C@@H](CCCNC(=N)N)C(=O)N[C@H](C(=O)N[C@@H](Cc3c[nH]c4ccccc34)C(=O)N[C@@H](CCCNC(=N)N)C(N)=O)C(C)C)C(C)C)(C2)NC(=O)[C@H](CC(=O)O)NC(=O)[C@H](CC(C)C)NC1=O (single isomer, unassigned) [FP0758c, Ac-P-Q-R5-I-L-D-MB-H-V-R-R-V-W-R-NH2] |
| 100 to 500 | CC[C@H](C)[C@@H]1NC(=O)[C@@](C)(NC(=O)[C@H](CCC(N)=O)NC(=O)[C@@H]2CCCN2C(C)=O)CCCCC=CCOC(=O)N2CC[C@@](C(=O)N[C@@H](Cc3c[nH]cn3)C(=O)N[C@H](C(=O)N[C@@H](CCCNC(=N)N)C(=O)N[C@@H](CCCNC(=N)N)C(=O)N[C@H](C(=O)N[C@@H](Cc3c[nH]c4ccccc34)C(=O)N[C@@H](CCCNC(=N)N)C(N)=O)C(C)C)C(C)C)(C2)NC(=O)[C@H](CC(=O)O)NC(=O)[C@H](CC(C)C)NC1=O (single isomer, unassigned) [FP0761c, Ac-P-Q-S6-I-L-D-MB-H-V-R-R-V-W-R-NH2] |
| 500 to 5000 | CC[C@H](C)[C@@H]1NC(=O)[C@@](C)(NC(=O)[C@H](CCC(N)=O)NC(=O)[C@@H]2CCCN2C(C)=O)CCCCCC=CCN2CC[C@@](C(=O)N[C@@H](Cc3c[nH]cn3)C(=O)N[C@H](C(=O)N[C@@H](CCCNC(=N)N)C(=O)N[C@@H](CCCNC(=N)N)C(=O)N[C@H](C(=O)N[C@@H](Cc3c[nH]c4ccccc34)C(=O)N[C@@H](CCCNC(=N)N)C(N)=O)C(C)C)C(C)C)(C2)NC(=O)[C@H](CC(=O)O)NC(=O)[C@H](CC(C)C)NC1=O (single isomer, unassigned) [FP0763a, Ac-P-Q-S7-I-L-D-MB-H-V-R-R-V-W-R-NH2] |
| 100 to 500 | CC[C@H](C)[C@@H]1NC(=O)[C@@](C)(NC(=O)[C@H](CCC(N)=O)NC(=O)[C@@H]2CCCN2C(C)=O)CCCCCC=CCOC(=O)N2CC[C@@](C(=O)N[C@@H](Cc3c[nH]cn3)C(=O)N[C@H](C(=O)N[C@@H](CCCNC(=N)N)C(=O)N[C@@H](CCCNC(=N)N)C(=O)N[C@H](C(=O)N[C@@H](Cc3c[nH]c4ccccc34)C(=O)N[C@@H](CCCNC(=N)N)C(N)=O)C(C)C)C(C)C)(C2)NC(=O)[C@H](CC(=O)O)NC(=O)[C@H](CC(C)C)NC1=O (single isomer, unassigned) [FP0763c, Ac-P-Q-S7-I-L-D-MB-H-V-R-R-V-W-R-NH2] |
| 500 to 5000 | CC[C@H](C)[C@@H]1NC(=O)[C@](C)(NC(=O)[C@H](CCC(N)=O)NC(=O)[C@@H]2CCCN2C(C)=O)CCCCC=CCN2CC[C@](C(=O)N[C@@H](Cc3c[nH]cn3)C(=O)N[C@H](C(=O)N[C@@H](CCCNC(=N)N)C(=O)N[C@@H](CCCNC(=N)N)C(=O)N[C@H](C(=O)N[C@@H](Cc3c[nH]c4ccccc34)C(=O)N[C@@H](CCCNC(=N)N)C(N)=O)C(C)C)C(C)C)(C2)NC(=O)[C@H](CC(=O)O)NC(=O)[C@H](CC(C)C)NC1=O (single isomer, unassigned) [FP0767a, Ac-P-Q-R6-I-L-D-MC-H-V-R-R-V-W-R-NH2] |
| 100 to 500 | CC[C@H](C)[C@@H]1NC(=O)[C@](C)(NC(=O)[C@H](CCC(N)=O)NC(=O)[C@@H]2CCCN2C(C)=O)CCCCC=CCOC(=O)N2CC[C@](C(=O)N[C@@H](Cc3c[nH]cn3)C(=O)N[C@H](C(=O)N[C@@H](CCCNC(=N)N)C(=O)N[C@@H](CCCNC(=N)N)C(=O)N[C@H](C(=O)N[C@@H](Cc3c[nH]c4ccccc34)C(=O)N[C@@H](CCCNC(=N)N)C(N)=O)C(C)C)C(C)C)(C2)NC(=O)[C@H](CC(=O)O)NC(=O)[C@H](CC(C)C)NC1=O (single isomer, unassigned) [FP0767c, Ac-P-Q-R6-I-L-D-MC-H-V-R-R-V-W-R-NH2] |
| 100 to 500 | CC[C@H](C)[C@@H]1NC(=O)[C@](C)(NC(=O)[C@H](CCC(N)=O)NC(=O)[C@@H]2CCCN2C(C)=O)CCCCCC=CCOC(=O)N2CC[C@](C(=O)N[C@@H](Cc3c[nH]cn3)C(=O)N[C@H](C(=O)N[C@@H](CCCNC(=N)N)C(=O)N[C@@H](CCCNC(=N)N)C(=O)N[C@H](C(=O)N[C@@H](Cc3c[nH]c4ccccc34)C(=O)N[C@@H](CCCNC(=N)N)C(N)=O)C(C)C)C(C)C)(C2)NC(=O)[C@H](CC(=O)O)NC(=O)[C@H](CC(C)C)NC1=O (single isomer, unassigned) [FP0768c, Ac-P-Q-R7-I-L-D-MC-H-V-R-R-V-W-R-NH2] |
